Assay [1] is described as follows: Anti-inflammatory activity assessed as heat -induced protein denaturation using hen egg albumin at 31.25 ug/ml relative to control. The settings on record: dose 31.25 µg/ml. Format: functional.
In assay [2] the test system is Rattus norvegicus. Put plainly: Anti-inflammatory activity against formalin-induced foot paw edema in PO dosed rat at 10 mg/kg assessed as inhibition of edema measured after 5 hr relative to control. Type of assay: functional. More on the design: scale not given: the % may be the effect or the level left.
Assay [3] in a line: Selectivity index, ratio of IC50 for ovine COX1 to IC50 for recombinant human COX2.
Assay [4] has as its system Rattus norvegicus. Put plainly: Anti-ulcerative activity in aspirin induced Wistar rat ulcer model assessed as inhibition of ulcer index at 20 mg/kg,po. Type of assay: functional.
Assay [5] concerns Rattus norvegicus. Put plainly: Anti-inflammatory activity against Carrageenan-induced paw edema in PO dosed Wistar albino rat assessed as reduction in hind paw edema volume at 20 mg/kg relative to control. More on the design: scale not given: the % may be the effect or the level left. Format: functional.
Assay [6] relates to Rattus norvegicus. Put plainly: Anti-inflammatory activity against carrageenan-induced Albino Wistar rat paw edema model assessed as inhibition of rat paw edema at 50 mg/kg, po after 3 hrs relative to control. Format: functional. Also on record: scale not given: the % may be the effect or the level left. A general note: In the carrageenan paw model, swelling and tenderness develop within hours.

For assay [7], the system named is Rattus norvegicus. The assay can be described thus: Anti-ulcerative activity in Carrageenan-induced Sprague-Dawley rat ulcer model assessed as inhibition of ulcer index at 10 mg/kg,po. Type of assay: functional.
In assay [8] the test system is Rattus norvegicus. Put plainly: Anti-inflammatory activity in Carrageenan-induced paw edema in Wistar albino rat assessed as inhibition of edema measured after 5 hr relative to control. More on the design: scale not given: the % may be the effect or the level left. Format: functional.
The target of assay [9] is T1, Prostaglandin G/H synthase 1 (Ovis aries, UniProt P05979).
T1 sequence (P05979 whole entry): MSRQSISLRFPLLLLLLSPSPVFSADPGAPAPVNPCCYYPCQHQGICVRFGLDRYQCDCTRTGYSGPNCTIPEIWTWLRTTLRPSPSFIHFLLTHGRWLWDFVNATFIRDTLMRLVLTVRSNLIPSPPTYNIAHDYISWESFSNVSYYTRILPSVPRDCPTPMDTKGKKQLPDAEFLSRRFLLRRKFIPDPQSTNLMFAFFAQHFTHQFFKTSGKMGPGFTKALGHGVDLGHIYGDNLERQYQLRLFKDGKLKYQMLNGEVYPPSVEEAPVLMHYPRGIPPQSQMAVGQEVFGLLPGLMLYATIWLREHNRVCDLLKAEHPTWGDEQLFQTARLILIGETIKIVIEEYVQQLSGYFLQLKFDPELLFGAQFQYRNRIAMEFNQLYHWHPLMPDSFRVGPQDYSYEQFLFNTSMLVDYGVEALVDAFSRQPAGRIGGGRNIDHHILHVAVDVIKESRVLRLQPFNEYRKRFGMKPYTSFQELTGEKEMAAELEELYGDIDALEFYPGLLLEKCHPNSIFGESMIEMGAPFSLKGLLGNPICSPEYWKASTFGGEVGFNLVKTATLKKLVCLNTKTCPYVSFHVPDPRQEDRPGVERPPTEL
The assay can be described thus: Inhibition of ovine COX-1 by EIA method.

In assay [10] the target is T2, Prostaglandin G/H synthase 2 (Homo sapiens, UniProt P35354).
T2 sequence (P35354 whole entry): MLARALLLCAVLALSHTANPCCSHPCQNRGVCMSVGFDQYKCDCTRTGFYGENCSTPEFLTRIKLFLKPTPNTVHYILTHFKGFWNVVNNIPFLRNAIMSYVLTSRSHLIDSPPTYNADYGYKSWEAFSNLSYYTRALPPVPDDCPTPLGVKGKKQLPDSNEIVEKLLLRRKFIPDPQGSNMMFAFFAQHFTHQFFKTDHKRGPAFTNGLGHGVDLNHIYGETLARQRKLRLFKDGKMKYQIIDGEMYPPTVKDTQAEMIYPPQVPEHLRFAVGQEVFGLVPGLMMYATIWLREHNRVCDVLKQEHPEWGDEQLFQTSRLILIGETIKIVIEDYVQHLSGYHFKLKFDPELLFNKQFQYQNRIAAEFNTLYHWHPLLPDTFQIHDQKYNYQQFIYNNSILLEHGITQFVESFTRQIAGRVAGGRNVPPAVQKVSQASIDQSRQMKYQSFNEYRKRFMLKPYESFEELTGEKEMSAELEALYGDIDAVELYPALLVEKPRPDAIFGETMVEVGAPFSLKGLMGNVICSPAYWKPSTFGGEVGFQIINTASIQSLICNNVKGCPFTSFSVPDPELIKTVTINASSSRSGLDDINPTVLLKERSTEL
The assay can be described thus: Inhibition of human COX-2 assessed as by fluorescence based microplate reader assay.

Assay [11] concerns Rattus norvegicus. The assay can be described thus: Anti-inflammatory activity in Carrageenan-induced paw edema in Wistar albino rat assessed as inhibition of edema measured after 1 hr relative to control. Type of assay: functional. Also on record: scale not given: the % may be the effect or the level left.
Assay [12] has as its system Rattus norvegicus. Put plainly: Anti-inflammatory activity in Carrageenan-induced paw edema in Wistar albino rat assessed as inhibition of edema measured after 3 hr relative to control. Type of assay: functional. Also on record: scale not given: the % may be the effect or the level left.
Assay [13] can be described thus: Anti-inflammatory activity assessed using bovine serum albumin/egg albumin proteins assessed as protein denaturation measured at 95 degC for 20 mins by measuring turbidity by UV-Vis spectrophotometer. Type of assay: functional.
Assay [14] deals with Erythrocyte. The assay can be described thus: Anti-inflammatory activity in rat red blood cells assessed as stabilization of cell membrane at 500 microg/ml relative to control. Format: functional. The following applies: dose 500 µg/ml.
In assay [15] the test system is Erythrocyte. The assay can be described thus: Anti-inflammatory activity in rat red blood cells assessed as stabilization of cell membrane at 200 microg/ml relative to control. Type of assay: functional. The settings on record: dose 200 µg/ml.
Another assay concerns Mus musculus. The assay can be described thus: Anti-inflammatory activity in Carrageenan-induced paw edema in […] mouse model assessed as inhibition of edema at 200 mg/kg, po relative to control. Format: functional. Also on record: scale not given: the % may be the effect or the level left.
The target in assay [16] is T3, Polyunsaturated fatty acid 5-lipoxygenase (Homo sapiens, UniProt P09917).
T3 sequence (P09917 whole entry): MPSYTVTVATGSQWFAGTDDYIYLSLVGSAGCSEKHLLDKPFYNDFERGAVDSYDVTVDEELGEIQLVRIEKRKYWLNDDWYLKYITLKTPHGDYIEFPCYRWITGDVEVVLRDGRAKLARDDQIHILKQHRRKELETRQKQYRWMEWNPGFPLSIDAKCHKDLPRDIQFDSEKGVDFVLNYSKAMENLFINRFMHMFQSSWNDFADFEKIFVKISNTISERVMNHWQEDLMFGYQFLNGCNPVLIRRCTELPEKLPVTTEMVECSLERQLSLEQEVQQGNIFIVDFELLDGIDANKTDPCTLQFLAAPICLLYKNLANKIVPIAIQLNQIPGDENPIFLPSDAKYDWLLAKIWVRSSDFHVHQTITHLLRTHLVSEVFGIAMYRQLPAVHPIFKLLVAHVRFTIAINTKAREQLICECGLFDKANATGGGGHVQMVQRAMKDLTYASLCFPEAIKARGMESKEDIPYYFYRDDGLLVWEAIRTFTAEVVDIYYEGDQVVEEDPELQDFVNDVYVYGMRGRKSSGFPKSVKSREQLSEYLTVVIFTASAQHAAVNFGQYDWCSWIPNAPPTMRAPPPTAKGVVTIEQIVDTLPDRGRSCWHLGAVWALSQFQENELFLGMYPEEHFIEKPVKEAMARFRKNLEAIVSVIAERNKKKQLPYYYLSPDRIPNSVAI
The assay can be described thus: Inhibition of 5-LOX (unknown origin) after 5 mins by colorimetric method.

The subject of assay [17] is Rattus norvegicus. The assay can be described thus: Anti-inflammatory activity in Carrageenan-induced paw edema in PO dosed Swiss albino rat model at 10 mg/kg assessed as inhibition in volume of edema measured after 1 hrs relative to control. Format: functional.

In brackets after ≈: the same amount, converted by molar mass.

For `Cc1c(/N=C/c2c(OCc3cc(=O)oc4cc(O)ccc34)ccc3ccccc23)c(=O)n(-c2ccccc2)n1C`, in assay [1], the Activity is 67.3%.
Turning to `COc1ccc(N2C(=O)/C(=C/c3cn(-c4ccc(S(C)(=O)=O)cc4)nc3-c3cccc(Cl)c3)NC2=S)cc1`, the Activity in the assay with Rattus norvegicus [2] was 60%. Also, in assay [3], the Selectivity Index turned out to be 9.32. Besides, the UI in the assay with Rattus norvegicus [4] is 2.64.
Take `COc1ccc2oc(=O)cc(COc3ccc4ccccc4c3/C=N/c3c(C)n(C)n(-c4ccccc4)c3=O)c2c1`: the Activity in assay [1] was determined as 53.6%.
Take `COc1ccc(N/N=C2\C(=O)N(CNc3c(C)cccc3C)N=C2Nc2ccccc2F)cc1`: the Activity in the assay on Rattus norvegicus [5] was found to be 51%.
Consider `CS(=O)(=O)c1ccc(-n2cc(/C=N/Nc3ccc(S(N)(=O)=O)cc3)c(-c3ccc(Br)cc3)n2)cc1`, for which the Activity in the assay on Rattus norvegicus [6] stood at 80%. Moreover, in the assay with Rattus norvegicus [7], the UI was 3.77.
A word on the IC50: it is the concentration needed to halve the response being measured. In the case of `CSc1nn(-c2ccc(S(C)(=O)=O)cc2)c2ncnc(NCC(=O)/N=C/c3ccco3)c12`, the Activity came out at 88% in the assay with Rattus norvegicus [8], 2% with Rattus norvegicus [11] and 79% in the assay on Rattus norvegicus [12]. Also, the IC50 came to 123000 nM in assay [9] and 100 nM in [10].
As for `COc1ccc(-c2nn(-c3ccccc3)cc2CCC(=O)OCc2cn(-c3cccc(Cl)c3)nn2)cc1`, the 50% inhibitory concentration (IC50) in assay [13] was 60.56 µg/mL (≈ 118 µM). Also, the Activity in the assay on Erythrocyte [14] is 94%; in the assay on Erythrocyte [15], 70%.
For `Cc1ccc(N/N=C2\C(=N)N(c3ccc(S(N)(=O)=O)cc3)N=C2N)cc1`, the Activity in the assay with Mus musculus turned out to be 15%. Also, the midpoint of inhibition in assay [16], the IC50, lay at 1920 nM.
A word on the inhibition in vivo: it is the percentage by which the read-out fell short of the control. `Cc1c(-c2ccccc2)n(C(=O)c2ccccc2)c2ccc(S(C)(=O)=O)cc12`: the inhibition in vivo at 10 mg/kg in the assay with Rattus norvegicus [17] amounted to 73.1%.
